# In patent US6472348B1, “Pyridone derivatives and herbicides” (Kumiai Chemical Industry Co., Ltd., priority 1996, dated 2002):
# Experiments:
# [1] = tested on: pale smartweed (Po); test: Test Example 4: crop plant selectivity by upland field soil treatment (cotton), herbicidal effects; type: in vivo; set-up: scale not given here; conditions: evaluated 21st day after application
# Procedure, shortened: (§1)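 Upland soil treatment: crop and weed seeds in sand pots under a soil cover, compound applied to soil, greenhouse-grown, rated visually 21 d later.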
# [2] = tested on: China jute (Ab); test: as above; type: in vivo; set-up: scale not given here; conditions: evaluated 21st day after application
# Procedure, shortened: as §1
# [3] = tested on: common lambsquarters (Ch); test: as above; type: in vivo; set-up: scale not given here; conditions: evaluated 21st day after application
# Procedure, shortened: as §1
# [4] = tested on: corn (Ze); test: Test Example 11: crop plant selectivity by upland field foliage treatment (corn), phytotoxicity
# Procedure, shortened: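 Corn with pale smartweed, slender amaranth, common lambsquarters and China jute sown in sand-filled pots and grown 2 weeks in a greenhouse before foliage treatment. Herbicidal effect and crop phytotoxicity scored on day 14 after treatment against a rating standard.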
# [5] = tested on: slender amaranth (Am); test: Test Example 7: crop plant selectivity by upland field soil treatment (corn), herbicidal effects; type: in vivo; set-up: scale not given here; conditions: 21st day after application
# Procedure, shortened: (§2)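 Values are ratings of herbicidal effect and phytotoxicity on a standard scale, taken 21 days after application. Test species were sown together with corn in sand-filled pots, covered with soil, and grown in a greenhouse.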
# [6] = tested on: green foxtail (Se); test: as above; type: in vivo; set-up: scale not given here; conditions: 21st day after application
# Procedure, shortened: as §2
# [7] = tested on: pale smartweed (Po); test: as above; type: in vivo; set-up: scale not given here; conditions: 21st day after application
# Procedure, shortened: as §2
# [8] = tested on: China jute (Ab); test: as above; type: in vivo; set-up: scale not given here; conditions: 21st day after application
# Procedure, shortened: as §2
# [9] = tested on: common lambsquarters (Ch); test: as above; type: in vivo; set-up: scale not given here; conditions: 21st day after application
# Procedure, shortened: as §2
# [10] = corn, foliage treatment, dose 1.6 g ai/10a, evaluated on 14th day after treatment, index per Table 47
# [11] = upland field foliage treatment, dose 1.6 g ai/10a, 14th day after treatment
SMILES,Herbicidal effects Po ([1]; dose 1.6 g ai/10 a),Herbicidal effects Po ([1]; dose 6.3 g ai/10 a),Herbicidal effects Ab ([2]; dose 1.6 g ai/10 a),Herbicidal effects Ab ([2]; dose 6.3 g ai/10 a),Herbicidal effects Ch ([3]; dose 1.6 g ai/10 a),Herbicidal effects Ch ([3]; dose 6.3 g ai/10 a),"Phytotoxicity Ze [4, 10]",Herbicidal effects Am ([5]; dose 1.6 g ai/10a),Herbicidal effects Se ([6]; dose 1.6 g ai/10a),Herbicidal effects Po ([7]; dose 1.6 g ai/10a),Herbicidal effects Ab ([8]; dose 1.6 g ai/10a),Herbicidal effects Ch ([9]; dose 1.6 g ai/10a),Herbicidal effects Am ([5]; dose 6.3 g ai/10a),Herbicidal effects Se ([6]; dose 6.3 g ai/10a),Herbicidal effects Po ([7]; dose 6.3 g ai/10a),Herbicidal effects Ab ([8]; dose 6.3 g ai/10a),Herbicidal effects Ch ([9]; dose 6.3 g ai/10a),"Phytotoxicity Ze [4, 11]","Phytotoxicity Ze ([4]; upland field foliage treatment, dose 0.1 g ai/10a, 14th day after treatment)"
C#CC(C)Oc1cc(-c2cn(C)c(C(F)(F)F)cc2=O)c(F)cc1Cl (racemic) [Compound 6-10],5,5,4,5,5,5,1,,,,,,,,,,,,
COc1cc(-c2ccc(C(F)(F)F)n(C)c2=O)c(F)cc1Cl [1-15],5,5,5,5,5,5,,5,5,5,5,5,,,,,,,
C=CCOc1cc(-c2ccc(C(F)(F)F)n(C)c2=O)c(F)cc1Cl [1-16],5,5,5,5,5,5,,5,5,5,5,5,5,5,5,5,5,2,
C#CC(C)Oc1cc(-c2ccc(C(F)(F)F)n(C)c2=O)c(F)cc1Cl (stereo not shown) [1-17],5,5,5,4,5,5,,5,5,5,5,5,5,5,5,4,5,,
C#CCOc1cc(-c2ccc(C(F)(F)F)n(C)c2=O)c(F)cc1Cl [1-18],5,5,5,5,5,5,,5,5,5,5,5,5,5,5,5,5,2,
Cn1c(C(F)(F)F)ccc(-c2cc(OCC#N)c(Cl)cc2F)c1=O [1-25],,5,,5,,5,,,,,,,5,5,5,5,5,2,
C#CCOc1cc(-c2ccc(C(F)(F)F)n(C)c2=O)c(Cl)cc1Cl [1-30],5,5,5,5,5,5,,5,5,5,5,5,5,5,5,5,5,2,
CC(C)Sc1cc(-c2ccc(C(F)(F)F)n(C)c2=O)c(F)cc1Cl [1-43],,5,,4,,5,,,,,,,5,5,5,4,5,,
C#CCSc1cc(-c2ccc(C(F)(F)F)n(C)c2=O)c(F)cc1Cl [1-44],,5,,5,,5,,,,,,,5,5,5,5,5,,
Cc1cc(-c2ccc(C(F)(F)F)n(C)c2=O)c(F)cc1Cl [1-90],,5,,5,,5,,5,5,5,5,5,5,5,5,5,5,,
COCSc1cc(-c2ccc(C(F)(F)F)n(C)c2=O)c(F)cc1Cl [1-91],5,5,5,5,5,5,,5,5,5,5,5,5,5,5,5,5,,
Cn1c(C(F)(F)F)ccc(-c2cc(Cl)c(Cl)cc2F)c1=O [1-136],,5,,5,,5,,5,5,5,5,5,,,,,,,
Cn1c(C(F)(F)F)ccc(-c2cc(OCC(F)(F)F)c(Cl)cc2F)c1=O [1-155],5,5,5,5,5,5,,5,5,5,5,5,5,5,5,5,5,,
Cn1c(C(F)(F)F)ccc(-c2cc(OCC3CC3)c(Cl)cc2F)c1=O [1-160],,5,,5,,5,,,,,,,5,5,5,5,5,,
CCOCOc1cc(-c2ccc(C(F)(F)F)n(C)c2=O)c(F)cc1Cl [1-181],,5,,5,,5,,,,,,,,,,,,2,
C#CC(O)c1cc(-c2ccc(C(F)(F)F)n(C)c2=O)c(F)cc1Cl (stereo not shown) [Compound 1-202],5,5,5,5,5,5,,5,5,5,5,5,,,,,,,
C=CCN1C(=O)COc2cc(F)c(-c3ccc(C(F)(F)F)n(C)c3=O)cc21 [Compound 2-7],5,5,5,5,4,5,,,,,,,,,,,,,
Cc1cc2c(-c3ccc(C(F)(F)F)n(C)c3=O)c(F)cc(Cl)c2o1 [Compound 4-1],5,5,5,5,5,5,,5,5,5,5,5,5,5,5,5,5,,
CCc1cc2c(-c3ccc(C(F)(F)F)n(C)c3=O)c(F)cc(Cl)c2o1 [Compound 4-2],5,5,5,5,5,5,,5,5,5,5,5,5,5,5,5,5,,
C#CCN1C(=O)COc2cc(F)c(-c3cn(C)c(C(F)(F)F)cc3=O)cc21 [Compound 7-1],,5,,5,,,2,,,,,,,,,,,,
"C#CCN1C(=O)COc2cc(F)c(-c3ccc(C(F)(F)F)n(C)c3=O)cc21 [Compound No. 2-1, 3-[7-fluoro-2,3-dihydro-4-(2-propynyl)-1,4-benzoxazin-3-on-6-yl]-1-methyl-6-trifluoromethyl-2(1H)-pyridone]",5,,5,,5,,,,,,,,,,,,,,0
"C#CCn1c(=O)sc2cc(F)c(-c3ccc(C(F)(F)F)n(C)c3=O)cc21 [Compound No. 3-1, 3-[6-fluoro-3-(2-propynyl)-benzothiazolin-2-on-5-yl]-1-methyl-6-trifluoromethyl-2(1H)-pyridone]",5,5,5,5,5,5,,5,5,5,5,5,5,5,5,5,5,,
"Cn1cc(-c2cc(Oc3ccccc3)c(Cl)cc2F)c(=O)cc1C(F)(F)F [Compound No. 6-19, 5-(4-chloro-2-fluoro-5-phenoxyphenyl)-1-methyl-2-trifluoromethyl-4(1H)-pyridone]",5,5,3,5,5,5,,,,,,,,,,,,,
"Cc1cc2c(-c3cn(C)c(C(F)(F)F)cc3=O)c(F)cc(Cl)c2o1 [Compound No. 9-1, 5-(7-chloro-5-fluoro-2-methylbenzofuran-4-yl)-1-methyl-2-trifluoromethyl-4(1H)-pyridone]",4,5,5,5,5,5,,,,,,,,,,,,,
